Where two headings read alike, the source gives them in different places.
How the values were obtained:
Gram-positive bacteria = test system: Gram-positive bacteria; parameters: method as in PMID 36377761; details: against Gram-positive bacteria, cited from earlier work
[1] = test system: human ileal apical-out enteroids; details: 12.5 μg mL^–1 (34–39 μM), 4 h exposure
Description: Effects on barrier integrity of apical-out enteroids after glab, licoA, and glycy exposure were evaluated with a dextran diffusion assay, adapted from Co et al.[14] […] Enteroids were allowed to settle by gravity (5 min) into a pellet, the FITC-dextran 4 kDa was aspirated, and enteroids were washed with DMEM/F12 (3 min, 250g, RT). Enteroids were suspended in fresh DMEM/F12, and they were imaged with an EVOS FL Auto 2 cell imaging system. Images were analyzed using ImageJ software (version 1.52).

[2] = test system: human ileal apical-out enteroids; assay: Cytotoxicity by LDH leakage assay in apical-out enteroids; type: cell-based; details: human
Description: (§1) Cytotoxicity and effects on cell viability after exposure to glab, licoA, and glycy in apical-out and apical-in enteroids (6.25–500 μg mL^–1) and proliferating Caco-2 cells (3.13–100 μg mL^–1) were determined by LDH leakage (Section 2.6.1) and WST-1 assays (Section 2.6.2), respectively. For this, stock solutions of 50 mg mL^–1 of glab, licoA, and glycy in DMSO were used. […] An overview of the experimental conditions for the exposure experiments with glab, licoA, and glycy is shown in Table S2 (Supporting Information). In brief, apical-out and apical-in enteroids were grown for 7–10 days in OGM (∼200 enteroids per dome), after which the medium was changed to ODM (supplemented with 5 μM DAPT) to initiate enteroid differentiation. To generate apical-out enteroids, MG was removed from apical-in enteroids in OGM at day 7–10, as described in Section 2.3, and suspended in supplemented ODM. After 3 days in ODM, the effects on cytotoxicity and cell viability of glab, licoA, and glycy in apical-out and apical-in enteroids (passages between 3 and 17) were assessed after 4 and 24 h of incubation. For apical-out enteroids in a suspension, enteroids were pelleted by centrifugation (2 min, 200g, RT), after which the ODM was removed and 500 μL of the experimental agent was added. […] Caco-2 cells were grown for 48 h after seeding before experiments (passages 14–19) with proliferating cells and for 21 days after seeding (passages 14–33) with differentiated cells.[17] The medium (DMEM supplemented with FCS) was changed every 2 days. For exposure experiments, Caco-2 cells were incubated with glab, licoA, and glycy in DMEM without FCS, as FCS serves as an exogenous source of LDH.[22]
(§2) Cytotoxic effects of glab, licoA, and glycy were assessed by measuring leakage of intracellular lactate dehydrogenase (LDH) in the supernatant and analyzed using an LDH cytotoxicity detection kit (Roche Applied Science, Almere, The Netherlands), according to the manufacturer’s instructions. The LDH activity in the supernatant was expressed as the percentage of the maximum releasable LDH in enteroids or Caco-2 cells (enteroids or Caco-2 cells treated with 1% (v/v) Triton X-100) and calculated with eq 1. [drawing 1] 1 in which exp. value is the UV absorbance at 492 nm (Tecan Spark or Tecan Infinite 200 Pro, Tecan Group Ltd., Zürich, Switzerland), background control is the medium with corresponding concentration of glab, licoA, or glycy, and high control is the maximum releasable LDH in enteroids or Caco-2 cells. For enteroids, each well was used as its own positive control by taking the total releasable LDH of each well after incubation.

[3] = test system: human ileal apical-in enteroids; assay: Cytotoxicity by LDH leakage assay in apical-in enteroids; type: cell-based; details: 4 h, cutoff 25% vs negative control
Description: as §1, §2

[4] = test system: human CYP enzymes (i.e., CYP3A4); parameters: method as in PMID 17220245, PMID 28774812, PMID 12019199, PMID 26100226; details: cited from earlier work
[5] = test system: human apical-in ileal enteroids; assay: Biotransformation in apical-in ileal enteroids (RP-UHPLC-PDA-MSn); type: in vitro ADME
Description: (§3) Biotransformation of glab, licoA, and glycy in apical-out and apical-in enteroids was evaluated after 0, 4, and 24 h of incubation. For this, apical-out enteroids were stimulated with 50 μg mL^–1 (154 μM) glab, or with 100 μg mL^–1 licoA (296 μM), or 100 μg mL^–1 glycy (272 μM), and apical-in enteroids were stimulated with 50 μg mL^–1 glab (154 μM), 50 μg mL^–1 licoA (148 μM), or 50 μg mL^–1 glycy (136 μM). […] For apical-out enteroids, parent compounds and their transformation products were assessed on the enteroids’ apical (facing the medium) and basolateral side (inside the enteroids) and intracellularly. In apical-in enteroids, parent compounds and metabolites were assessed on the basolateral side (facing the medium). For the apical release, apical-out enteroids were pelleted (250g, 3 min, 4 °C), and the supernatant was used for LC-MS analysis, after which the enteroids were washed with PBS. Enteroids in a suspension in fresh PBS were broken up by vigorously pipetting up and down approximately for 20 times, after which enteroids were pelleted and the supernatant was used to determine basolateral release by using LC-MS. Enteroids were washed with PBS, and the enteroids’ cells in fresh PBS were disrupted on ice with a digital sonifier (Branson Ultrasonics Corporation, Danbury, CT, USA) with the following settings: a 5 s pulse, a 10 s pause, an amplitude of 55%, and 12 cycles. Enteroids were pelleted, and the supernatant was used as a measure for intracellular release and measured with LC-MS.
(§4) Samples were separated on a Thermo Vanquish UHPLC system (Thermo Scientific, San Jose, CA, USA) equipped with a pump, a degasser, an autosampler, and a PDA detector, as described elsewhere.[15] Eluents used were (A) LC-MS-grade MQ + 0.1% FA (v/v) and (B) LC-MS-grade ACN + 0.1% FA (v/v). The elution program was started by running isocratically at 1% B for 1.09 min followed by a 1.09–26.16 min linear gradient to 70% B, a 26.16–27.25 min linear gradient to 100% B, and 27.25–32.70 min isocratically at 100% B. The eluent was adjusted to start conditions in 1.09 min followed by equilibration of 5.45 min.
(§5) Mass spectrometric data were acquired using an LTQ Velos Pro linear ion trap mass spectrometer (Thermo Scientific), equipped with a heated ESI probe coupled in-line to the Vanquish UHPLC system, as described elsewhere.[15] Data were processed using Xcalibur 4.1 (Thermo Scientific).
(§6) Quantification of glab, licoA, glycy, and produced metabolites was based on UV absorbance at 280 nm (glab), 340–390 nm (licoA), and 320–370 nm (glycy). For this, a seven-point calibration (0.01–150 μg mL^–1) curve based on external standards of glab, licoA, and glycy (R^2 > 0.999) was used. UV peaks were integrated using the AVALON integration algorithm with the autocalc function (Xcalibur 4.1). Metabolites were quantified as glab, licoA, or glycy equivalents.

[6] = Stability in the medium without enteroids; type: physicochemical; details: after 24 h of incubation
Description: as §6

[7] = Cell viability by WST-1 assay in apical-out enteroids; type: cell-based, human; details: human
Description: as §1
Effects on cell viability after stimulation by glab, licoA, and glycy were assessed by measuring cleavage of the tetrazolium salt WST-1 to formazan catalyzed by cellular mitochondrial dehydrogenases and analyzed using a WST-1 cell viability kit (PromoKine, Heidelberg, Germany), according to the manufacturer’s instructions. Cell viability was expressed as the percentage of the control cells (enteroids or Caco-2 cells grown in a medium) and was calculated with eq 2. [drawing 2] 2 in which exp. value is the UV absorbance at 450 nm (Tecan Spark or Tecan Infinite 200 Pro) and low control is the spontaneous cleavage of WST-1 to formazan by mitochondrial dehydrogenases in untreated enteroids or Caco-2 cells.

[8] = test system: human apical-out ileal enteroids; assay: Biotransformation in apical-out ileal enteroids (RP-UHPLC-PDA-MSn); type: in vitro ADME; details: for glucuronide concentration released at the apical side: glycy 265 μM at t = 0 h
Description: as §3, §4, §5, §6

Caco-2 cells = assay: Cytotoxicity by LDH leakage assay in Caco-2 cells; type: cell-based, human; details: proliferating and differentiated Caco-2 cells (differentiated: ref 17), cutoff 25%
Description: The human colon adenocarcinoma cell line (Caco-2) was obtained from the American Type Culture Collection (ATCC; Manassas, VA, USA). Caco-2 cells were cultured in DMEM, in a humidified atmosphere of 5% CO2 at 37 °C until 80–90% confluency was reached. Effects on the cytotoxicity and cell viability (Section 2.6) were assessed in proliferating and differentiated Caco-2 cells. The effects on differentiated Caco-2 cells were recently described in our publication.[17] Proliferating and differentiated Caco-2 cells were seeded into 96-well plates at a density of 15,000 cells per cm^2.
Cytotoxicity and effects on cell viability after exposure to glab, licoA, and glycy in apical-out and apical-in enteroids (6.25–500 μg mL^–1) and proliferating Caco-2 cells (3.13–100 μg mL^–1) were determined by LDH leakage (Section 2.6.1) and WST-1 assays (Section 2.6.2), respectively. For this, stock solutions of 50 mg mL^–1 of glab, licoA, and glycy in DMSO were used. […] After 3 days in ODM, the effects on cytotoxicity and cell viability of glab, licoA, and glycy in apical-out and apical-in enteroids (passages between 3 and 17) were assessed after 4 and 24 h of incubation. […]
as §2, with “[drawing 1]” left out, “For enteroids, each well was used as its own positive control by taking the total releasable LDH of each well after incubation.” left out

Row | glucuronide concentration released at the apical side ([8]; after 4 h) [µM] | glucuronide concentration released at the apical side ([8]; after 24 h) [µM] | Compound | minimum inhibitory concentration (MIC) (Gram-positive bacteria) [μg mL^–1] | minimum inhibitory concentration (MIC) (Gram-positive bacteria; equivalent of 12.5 μg mL^–1) [µM] | epithelial barrier (membrane) integrity [1] | fold higher concentration for significant cytotoxicity in apical-out vs apical-in enteroids [2] | cytotoxicity (LDH) ([2]; 4 h, 500 μg mL^–1) [%] | highest nontoxic concentration (LDH) [3] | inhibition of human CYP enzymes (i.e., CYP3A4) [4] | biotransformation products formed ([5]; identified at the basolateral side) | phase I metabolites ([5]; up to 24 h incubation) | recovery in the medium (without enteroids) [6] [%] | viability at 4 h, 500 μg mL^–1 [7] [%] | sulfation (LC-MS analysis) ([8]; human ileal apical-out and apical-in enteroids) | biotransformation products formed ([8]; released on the apical side) | phase I biotransformation products ([8]; up to 24 h incubation) | highest nontoxic concentration (LDH) (Caco-2 cells)
1 |  |  | COc1c(CC=C(C)C)c(O)cc2oc(=O)c(-c3ccc(O)cc3O)cc12 [glycycoumarin] | 12.5 | 34 | did not seem to disrupt | 3-5 fold | −2 ± 2 | around 300 μM | inhibition | transformed to their glucuronides | no phase I metabolites were identified | 101 ± 3.0 | 77 ± 13 | did not reveal sulfation | glucuronide metabolites | No phase I biotransformation products | around 75 μM
2 | ~3 | ~16 | glycycoumarin-glucuronide [glycy-glucuronide] |  |  |  |  |  |  |  |  |  |  |  |  |  |  | 
